In the RepoRT retention time repository (doi:10.1038/s41586-021-03707-9) one finds LC retention time data, which are given here for 58 compounds.

This data set can be described thus: Waters ACQUITY UPLC BEH C18, 100 × 2.1 mm, 1.7 µm, 40 °C, 0.28 mL/min, estimated dead time 0.63 min; A: water + 6.5 mM ammonium hydroxide; B: methanol + 6.5 mM ammonium hydroxide; gradient (min/%B) 0/0.5 4/70 4.5/98 5.4/98. As to conditions: stereoisomer not certain.

With `NCCC(=O)NC(Cc1cnc[nH]1)C(=O)O` (stereo not drawn), the LC retention time was 0.9 min. The result for `O=C1OC(C(O)CO)C(=O)C1=O` (stereo not drawn) reads 0.862 min; that for `Cc1ccc(O)c([N+](=O)[O-])c1`, 4.33 min; that for `CC(CCC(=O)O)C1CCC2C3C(O)CC4CC(O)CCC4(C)C3CC(O)C12C` (stereo not drawn), 4.99 min. With `O=C(O)c1cc(O)cc(O)c1`, the LC retention time was 0.832 min. The result for `O=C(O)CNC(=O)c1cccc(O)c1` reads 1.91 min; that for `NCC(N)C(=O)O` (stereo not drawn), 0.768 min; that for `O=c1[nH]c(=O)c2[nH]c(=O)[nH]c2[nH]1`, 0.828 min. For `Cn1cncc1CC(N)C(=O)O` (stereo not drawn), the LC retention time is 0.969 min.

Regarding `O=S(=O)(O)Oc1c[nH]c2ccccc12`, the LC retention time was 2.59 min. Next, `Nc1ncnc2c1ncn2C1OC(COP(=O)(O)OP(=O)(O)OC2OC(CO)C(O)C(O)C2O)C(O)C1O` (stereo not drawn): 0.917 min; `Cc1cn(C2CC(O)C(COP(=O)(O)OP(=O)(O)OC3OC(CO)C(O)C(O)C3O)O2)c(=O)[nH]c1=O` (stereo not drawn): 0.923 min; `CC(C)(COP(=O)(O)OP(=O)(O)OCC1OC(n2cnc3c(N)ncnc32)C(O)C1OP(=O)(O)O)C(O)C(=O)NCCC(=O)NCCS` (stereo not drawn): 0.853 min. The result for `O=C(O)Cc1ccc(O)c(O)c1` reads 1.1 min; that for `CCCCCCCC(=O)O`, 4.74 min; that for `CC(CO)C(=O)O` (stereo not drawn), 0.798 min. Next, `Cc1cc(C(=O)O)ccc1O`: 3.54 min; `CCC(O)C(=O)O` (stereo not drawn): 0.842 min. Consider `O=C(O)CCCCCCC(=O)O`, for which the LC retention time is 0.826 min.

Consider `NC(CO)Cc1cnc[nH]1` (stereo not drawn), for which the LC retention time was 1.28 min. Next, `NC(=O)c1ccc[n+](C2OC(COP(=O)(O)OP(=O)(O)OCC3OC(n4cnc5c(=O)[nH]cnc54)C(O)C3O)C(O)C2O)c1` (stereo not drawn): 1.26 min; `COC1OC(CO)C(O)C(O)C1O` (stereo not drawn): 0.979 min; `NC(Cc1cnc[nH]1)C(=O)O` (stereo not drawn): 0.849 min.

With `O=CC(O)C(O)C(O)CO` (stereo not drawn), the LC retention time is 0.839 min. As to `NC(CCO)C(=O)O` (stereo not drawn), the LC retention time was 0.762 min. With `CC(C)Cc1ccc(C(C)C(=O)O)cc1` (stereo not drawn), the LC retention time is 5.27 min. The result for `O=C(O)c1cccc(O)c1O` reads 1.56 min; that for `O=C(O)Cc1cccc(O)c1`, 1.79 min. Next, `NC(N)=Nc1nc(CSCCC(N)=NS(N)(=O)=O)cs1`: 3.07 min; `CC(=O)OCc1ccccc1`: 2.78 min; `CC=C(C)C(=O)O`: 1.61 min. With `COC(=O)Cc1ccc(O)cc1`, the LC retention time was 4.14 min. Turning to `CC(C)(O)CC(=O)O`, the LC retention time was 1.2 min. The result for `O=C(CO)C(OC1OC(CO)C(O)C(O)C1O)C(O)C(O)CO` (stereo not drawn) reads 0.828 min. For `O=c1[nH]c(=O)c2[nH]cnc2[nH]1`, the LC retention time is 0.977 min.

Turning to `CNC(=C[N+](=O)[O-])NCCSCc1csc(CN(C)C)n1`, the LC retention time was 3.86 min.

Take `CNCC(=O)O`: the LC retention time is 0.778 min. The result for `O=C(O)c1cc(O)ccc1O` reads 1.63 min; that for `NCCCCC(N)C(=O)O` (stereo not drawn), 0.794 min. For the compound `O=C(O)C(=O)Cc1c[nH]c2ccccc12`, the LC retention time is 3 min.

With `Nc1ncnc2c1ncn2C1OC(COP(=O)(O)OP(=O)(O)OCC2OC(O)C(O)C2O)C(O)C1O` (stereo not drawn), the LC retention time is 0.924 min. Next, `O=Cc1c[nH]c2ccccc12`: 4.19 min; `CCCC(N)C(=O)O` (stereo not drawn): 1.02 min; `CC(C)CCC(=O)O`: 3.06 min. Turning to `CC(=O)C1C(=O)C=C(C)OC1=O` (stereo not drawn), the LC retention time is 2.04 min. The result for `NC(CS)C(=O)NCC(=O)O` (stereo not drawn) reads 0.946 min; that for `O=C(O)C1CCC(O)CC1` (stereo not drawn), 0.776 min. Next, `CCCCC1=NC2(CCCC2)C(=O)N1Cc1ccc(-c2ccccc2-c2nn[nH]n2)cc1`: 5.32 min; `NC1C(O)OC(CO)C(O)C1O` (stereo not drawn): 0.802 min; `CC=CC(=O)O`: 0.869 min. The result for `O=S(=O)(O)c1cccc2cccc(Nc3ccccc3)c12` reads 5.12 min; that for `CC=CC=CC(=O)O`, 2.28 min.

Consider `O=C(O)CCc1ccccc1O`, for which the LC retention time was 2.93 min. Take `CC(=O)NC(CCC(N)=O)C(=O)O` (stereo not drawn): the LC retention time was 0.835 min. The result for `O=C(O)CCCc1ccccc1` reads 3.86 min; that for `O=C(O)c1ccc2ccccc2c1O`, 4.3 min.

Turning to `O=C(O)CNC(=O)c1ccco1`, the LC retention time was 1.7 min. Regarding `NCCC(=O)O`, the LC retention time was 0.761 min.
